Assay results: patent US20250186566A1, “CELL-BASED VACCINES” (Arkea Bio Corp., priority 2023, published 2025)
Like-named read-outs stand apart in the source and are kept apart here.

Legend:
[1] = tested on: cattle; conditions: cited from earlier work
[2] = tested on: CH4 production; conditions: cited from earlier work
[3] = 3NOP pH and temperature stability (HPLC); type: physicochemical; conditions: 1-month, 4-30° C., pH 4-10
Procedure: 3NOP pH and Temperature Stability: Confirmed via HPLC over a 1-month time period at temperature between 4-30° C. and pH 4-10.

[4] = 3NOP to adsorbent ratio study; type: physicochemical; conditions: distilled water at 1% 3NOP loading, 24 hr
Procedure: Optimal loading of 3NOP onto adsorbents was determined by varying ratios of 3NOP to adsorbent. 3NOP and adsorbent were speed mixed at 2000 rpm for 1 min. at the following ratios by weight: 1:1.5, 1:2, 1:2.5. The adsorbed 3NOP powder mixture was then placed in distilled water at 1% 3NOP loading. The solution was allowed to equilibrate for 24 hr and then an aliquot was taken for HPLC to determine the reduction in 3NOP concentration.

[5] = tested on: sheep; conditions: cited from earlier work
[6] = 3NOP volatility (mass loss open to air); type: physicochemical; conditions: 500 mg open to air, 18-24° C., 15-30% RH, 6 days
Procedure: 3NOP Volatility:500 mg of 3NOP in a 5 dram vial was left open to air at ˜18-24° C. at 15-30% RH over the course of 6 days. Average mass loss is ˜0.25% per day.

[7] = tested on: Mbb. Ruminantium, Ms. Mazei, and Mm. mobile; conditions: cited from earlier work
[8] = Adsorbent study: binding affinity and adsorptive capacity for 3NOP (HPLC at 230 nm)
Excerpt: The solution was then placed in an ultrasonic bath for ˜4 hr and then allowed to equilibrate over 24 hr.

[9] = tested on: rumen methanogens; conditions: cited from earlier work; for suppression of CH4: bacteriocins, in vitro
[10] = tested on: goats; conditions: 10 g/day/goat; cited from earlier work
[11] = tested on: rumen Methanobrevibacter; conditions: 5.6 μmol/L, in vitro; cited from earlier work
[12] = dairy cows, 40-80 mg/kg feed DM
[13] = 0.2 g of adsorbent in 10 mL of 1% 3NOP/H2O, after 24 hr, Control 8.258
[14] = beef cattle, fed at […] of DM intake

CC(CO)[N+](=O)[O-] (stereo not drawn) [2-nitropropanol]
lowering of CH4 production ([1]; steers): 37%

O=[N+]([O-])OCCCO [3-Nitrooxypropanol (NOP)]
maximum methane suppression amount ([2]; 0.08 mg/g dry matter (2019)): 0.08 mg/g dry matter; 44%
maximum methane suppression amount ([2]; 1.6 g, concentrate pellet): 23%
maximum methane suppression amount ([2]; 1.6 g, roughage): 28%

O=[N+]([O-])OCCCO [3NOP, 3-Nitrooxypropanol]
pH and temperature stability [3]: Confirmed
Average Integrated Area of 3NOP in solution ([4]; 3NOP:Adsorbent 1:1.5): 2566.4
Average Integrated Area of 3NOP in solution ([4]; 3NOP:Adsorbent 1:2): 2566.4
Average Integrated Area of 3NOP in solution ([4]; 3NOP:Adsorbent 1:2.5): 2566.4
decrease of CH4 production ([5]; 0.5 g/day): 29%
Average mass loss [6]: ~0.25 % per day
degree of CH4 suppression ([1]; added to the rumen through rumen cannula, 0.50 or 2.5 g per cow daily): 7-10%
decrease of CH4 yield ([1]; beef cattle, 2.0 g/day/cow): 59%
persistence of inhibition ([1]; beef cattle, 2.0 g/day/cow): up to 112 days
decrease of CH4 production [1, 12]: about 30%
persistence of decrease [1, 12]: up to 84 days

N=C(N)NCCC[C@H](N)C(=O)O [Arginine]
Average Integrated Area of 3NOP in solution ([4]; 3NOP:Adsorbent 1:1.5): 2406.0
Average Integrated Area of 3NOP in solution ([4]; 3NOP:Adsorbent 1:2): 2372.8
Average Integrated Area of 3NOP in solution ([4]; 3NOP:Adsorbent 1:2.5): 2435.2

ClCBr [BCM, bromochloromethane]
toxicity / residues ([1]; steers fed grain-based diets): no signs of toxicity or residues in meat

O=S(=O)(O)CCCBr [BPS, 3-bromopropanesulfonate]
sensitivity of methanogens ([7]; up to 250 μmol/L in pure cultures): resistant

C[N+](C)(C)CC(=O)O [Betaine]
3NOP concentration [8, 13]: 7.202 mM

O=C([O-])CC(O)(CC(=O)[O-])C(=O)[O-].[Bi+3] [Bismuth Citrate]
3NOP concentration [8, 13]: 8.072 mM

O=S(=O)([O-])[O-].O=S(=O)([O-])[O-].O=S(=O)([O-])[O-].[Bi+3].[Bi+3] [Bismuth Sulfate]
3NOP concentration [8, 13]: 8.079 mM

O=C(O)/C=C/c1ccc(O)c(O)c1 [Caffeic acid]
maximum suppression methane amount ([2]; 12 mM): 12 mM, Caffeic acid; 37.58%;

O=S(=O)([O-])[O-].[Cu+2] [Copper Sulfate]
3NOP concentration [8, 13]: 7.814 mM

N[C@@H](CCC(=O)O)C(=O)O [Glutamic acid]
Average Integrated Area of 3NOP in solution ([4]; 3NOP:Adsorbent 1:1.5): 2445.9
Average Integrated Area of 3NOP in solution ([4]; 3NOP:Adsorbent 1:2): 2452.5
Average Integrated Area of 3NOP in solution ([4]; 3NOP:Adsorbent 1:2.5): 2446.3

NC(=O)CC[C@H](N)C(=O)O [Glutamine]
3NOP concentration [8, 13]: 7.588 mM

NCCCC[C@H](N)C(=O)O [Lysine]
Average Integrated Area of 3NOP in solution ([4]; 3NOP:Adsorbent 1:1.5): 2336.2
Average Integrated Area of 3NOP in solution ([4]; 3NOP:Adsorbent 1:2): 2308.9
Average Integrated Area of 3NOP in solution ([4]; 3NOP:Adsorbent 1:2.5): 2266.6
3NOP concentration [8]: 18.583 mM

O=C(O)CC(O)C(=O)O (stereo not drawn) [Malate]
decrease of CH4 production [1, 14]: 16%
reduction of CH4 per unit of DM intake [1, 14]: 9%

O=[N+]([O-])CCO [NEOH]
maximum methane suppression amount ([2]; 10 mmol/L): 10 mmol/L; 96.7% (NE), 96.7%

CC[N+](=O)[O-] [NE]
maximum methane suppression amount ([2]; 10 mmol/L): 10 mmol/L; 96.7% (NE), 96.7%

CC(CO)[N+](=O)[O-] (stereo not drawn) [NPOH]
maximum methane suppression amount ([2]; 10 mmol/L): (NEOH), 41.7% (NPOH)

O=[N+]([O-])O [Nitrate]
maximum methane suppression amount ([2]; 5 mM (Liu et al., 2017)): 5 mM; 43.26% Liu et al., 2017)
maximum methane suppression amount ([2]; 5 mmol/L (Wu et al., 2019)): 5 mmol/L: 32.92%
maximum methane suppression amount ([2]; 20 mg/g dry matter (Alvarez-Hess et al. 2019)): 20 mg/g dry matter: 21%

ClC(Cl)Cl [chloroform]
duration of inhibition of methanogenesis ([1]; drenching to cattle): up to 32 days

O=C(O)/C=C/C(=O)O [fumarate]
decrease of CH4 production ([9]; 3.5 g/L, continuous fermenters with forages as a substrate): 38%
decrease of CH4 production [10]: 11.9%

CC[C@H](C)C(=O)O[C@H]1C[C@@H](C)C=C2C=C[C@H](C)[C@H](CC[C@@H]3C[C@@H](O)CC(=O)O3)[C@H]21 [lovastatin]
reduction of CH4 production ([9]; Rusitec, 150 mg/L): approximately 42%
reduction of total CH4 production by rumen methanogens ([9]; extracted from fermented rice straw, 48 h in vitro incubation): ~28%

O=c1[nH]c(=O)c2nccnc2[nH]1 [lumazin, 2,4-pteridinedione]
CH4 production by pure methanogen cultures ([7]; dose-dependent from 0.06 to 0.24 mmol/L): significantly decreased

CC[C@H](C)C(=O)O[C@H]1CCC=C2C=C[C@H](C)[C@H](CC[C@@H]3C[C@@H](O)CC(=O)O3)[C@H]21 [mevastatin]
growth of three strains of rumen Methanobrevibacter [11]: inhibited the growth

CC[C@@]1([C@@H]2O[C@@H]([C@H]3O[C@@](O)(CO)[C@H](C)C[C@@H]3C)C[C@@H]2C)CC[C@H]([C@]2(C)CC[C@]3(C[C@H](O)[C@@H](C)[C@@H]([C@@H](C)[C@@H](OC)[C@H](C)C(=O)O)O3)O2)O1 [monensin]
CH4 production by tropical cattle ([1]; 60 mg/day/cow): did not lower CH4 production
CH4 suppression ([1]; 10-15 ppm): no CH4 suppression
lowering of CH4 production (g/kg DM intake) ([1]; fed at 24-35 mg/kg diet): up to 10%
decrease of CH4 production ([1]; tropical cattle, 250 mg/day/cow): about 30%

CC[N+](=O)[O-] [nitroethane]
decrease of CH4 production ([5]; orally 24 mg/kg body weight daily for 5 days): up to 45%
decrease of CH4 production ([5]; orally 72 mg/kg body weight daily for 5 days): ≤ 69%

O=C(O)/C=C/c1ccc(O)cc1 [p-coumaric acid]
maximum suppression methane amount ([2]; 12 mM): p-coumaric acid; 28.33%

C#CC(=O)O [propynoic acid]
lowering of CH4 production ([9]; 6 mmol/L): 67%
lowering of CH4 production ([9]; 12 mmol/L): 78%

Oc1ccc(C=Cc2cc(O)cc(O)c2)cc1 [resveratrol]
maximum suppression methane amount ([2]; 25 mg, high-concentrate diets): high-concentrate diets; 41%
maximum suppression methane amount ([2]; 25 mg, high-forage diets): 25 mg, high-forage diets; 60%;

Bovicin HC5
suppression of CH4 [9]: 50%

Cyclodextrin
3NOP concentration [8, 13]: 7.676 mM

Lactobacillus plantarum
maximum suppression methane amount ([2]; 5.3 lg cfu/g fresh weight, 72 h): Lactobacillus plantarum, 8.8 ml/g(72 h)

Nisin
suppression of CH4 [9]: up to 40%
